From US5110819A, “Substituted quinolines and medicinal use thereof” (Leo Pharmaceutical Products Ltd., priority 1987, dated 1992)

Columns and labels:
cyclooxygenase = experiment: synthesis of cyclooxygenase products in A23187-stimulated rat peritoneal cells; type: cell-based; details: 10^-6 M
Experimental: (§1) The following method was used to assay 5-lipoxygenase activity in vitro: Rat peritoneal cells were harvested by i.p. injection of 10 ml Hank's balanced salt solution (GIBCO, cat. No. 4025, U.S.A.) containing 12.5 U/ml sodium heparin (Leo, Denmark) in anaesthesized rats. The resulting cell suspension, which mainly contained macrophages, was transferred to a test tube and washed twice by centrifugation (200 g, 10 min.) and resuspended in Hank's balanced salt solution containing 0.5% bovine serum albumin (BSA) (Sigma Chem. Co., U.S.A.). The cells from 9 rats were finally resuspended in Hank's balanced salt solution (with BSA) containing 5 μCi [1-^14 C]arachidonic acid (The Radiochemical Centre, Amersham, U.K.) and incubated for 90 minutes at 37° C. This caused labelling of cell membrane phospholipids as radioactive arachidonic acid was incorporated in the 2-position of the glycerol moiety. Excess arachidonic acid was then removed by washing the cells twice as described above. The cells were finally resuspended in the same solution (without BSA) at 10^7 cells/ml. 475 μl of the cell suspension was preincubated at 37° C. for 5 minutes with either 5 μl dimethylsulphoxide (DMSO) (control tube), or 5 μl of a drug solution in DMSO. Then 20 μl of a mixture of equal volumes of the calcium ionophore A23187, 10^-4 M in ethanol (Calbiochem, U.S.A.), and 0.4M CaCl2 in water was added. The final concentration of A23187 was thus 2×10^-6 M, and of Ca^++ 8 mM. After 5 minutes of incubation the tubes were transferred to an ice-bath and centrifuged for 10 minutes at 3,000 g (4° C.). An aliquot of the supernatant was counted by liquid scintillation spectrometry in order to calculate the total radioactive release induced by A23187 in presence of drugs. A decrease in radioactive release was taken as indication of phospholipase A2 inhibition. The supernatant was then extracted with ethyl acetate (2 ml), adjusted to pH 3 with 1N HCl and further extracted with 2 ml ethyl acetate. The combined extracts were evaporated to dryness in vacuo, the residue was redissolved in a small volume of methanol and applied by means of a Desaga Autospotter™ to a silica-gel coated thin-layer plate fitted with a polar concentrating zone (Merck Art. 11798, Darmstadt, F.R.G.). The plates were developed in the organic layer of the solvent mixture ethyl acetate/acetic acid/iso-octane/water (55:10:25:50). Radioactive spots were detected by autoradiography (AGFA-GEVAERT, Osray-RPI X-ray film, Belgium), and changes induced by drugs in the metabolic pattern of arachidonic acid were quantified by a laser densitometer (LKB, Ultroscan™ 2202, Bromma, Sweden) in combination with an integrating computer (SP 4100, Spectra-Physics, San Jose, Calif., U.S.A.).
(§2) These cells produced measurable amounts of radioactive 6-keto-prostaglandinF1α, thromboxane B2, prostaglandin D2, hydroxyheptadecatrienoic acid (HHT) (all cyclooxygenase products), 5-hydroxyeicosatetraenoic acid (5-HETE) and leukotriene B4 (both 5-lipoxygenase products).
(§3) At the same time, a decrease in synthesis of the cyclooxygenase products HHT, prostaglandin D2, thromboxane B2 and 6-keto-prostaglandin F1α was not observed. This pattern of drug activity is indicative of truly specific 5-lipoxygenase inhibition.

5-lipoxygenase = 5-lipoxygenase activity in vitro (leukotriene B4 and 5-HETE production in A23187-stimulated rat peritoneal cells); type: cell-based; details: 10^-6 M
Experimental: as §1, §2, §3

[1] = Pharmacological Data, IC50 (test not stated); details: Pharmacological Data table
[2] = molecular target: T1, guinea-pig tracheal strips (LTD4 concentration-response) (Cavia porcellus, UniProt Q2NNR5); experiment: LTD4 antagonism in guinea-pig tracheal strips (pKB); details: for Kb: Pharmacological Data table; for pKB value: guinea-pig tracheal strips, negative logarithm of the antagonist dissociation constant
T1 construct: from tissue; host or cells: guinea-pig tracheal strips
T1 sequence (Q2NNR5 1-340): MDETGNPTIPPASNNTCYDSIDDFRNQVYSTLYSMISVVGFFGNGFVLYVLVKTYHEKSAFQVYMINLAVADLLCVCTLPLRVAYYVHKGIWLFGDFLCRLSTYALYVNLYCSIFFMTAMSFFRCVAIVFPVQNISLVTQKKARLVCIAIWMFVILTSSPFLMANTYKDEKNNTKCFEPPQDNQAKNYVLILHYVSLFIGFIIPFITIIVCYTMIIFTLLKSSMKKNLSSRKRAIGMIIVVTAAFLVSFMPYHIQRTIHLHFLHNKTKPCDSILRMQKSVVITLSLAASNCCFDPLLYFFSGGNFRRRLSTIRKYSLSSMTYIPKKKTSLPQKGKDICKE
From the text: Leukotrine antagonists may be further characterized using guinea-pig tracheal strips instead of ileum strips (10). In this relevant in vitro model of human airways (11) tracheal strips are suspended in a physiological buffer containing indomethacin. A concentration-response curve to LTD4 is generated in the presence and absence of the leukotriene antagonist. From these curves the potency of a leukotriene antagonist may be expressed as the pKB value, the negative logarithm of the antagonist dissociation constant. The pKB value is determined as -log ([antagonist]/(dose ratio -1)), where the dose ratio is defined as EC50 (pressence of antagonist)/EC50 (absence of antagonist) and EC50 refers to the concentration of LTD4 eliciting 50% of the maximum response to LTD4 (12).

LTD4 receptor = molecular target: T2, LTD4 receptor (Cavia porcellus, UniProt Q2NNR5); experiment: receptor binding: competition with [^3 H]LTD4 on guinea-pig lung membranes; details: negative logarithm of molar concentration inhibiting binding by 50%, read-out: pIC50 value ([^3 H]LTD4 binding) (converted)
T2 construct: from tissue; host or cells: guinea-pig lung membranes
T2 sequence (Q2NNR5 1-340): T1 sequence (Q2NNR5 1-340)
From the text: It is of importance to investigate the receptor binding properties of leukotriene antagonists in relation to their pKB values (13), i.e. to correlate antagonist receptor blocking with inhibition of smooth muscle contraction. Receptor binding studies may be performed with guinea-pig lung membranes in a direct competition assay between a leukotriene antagonist and [^3 H]LTD4 for binding to the LTD4 receptor (10,13).

| IC50 [1] | Kb [2] | pKB value [2] | IC50 (LTD4 receptor) | Structure (SMILES) | decrease in synthesis of the cyclooxygenase products HHT, prostaglandin D2, thromboxane B2 and 6-keto-prostaglandin F1α (cyclooxygenase) | decrease in the production of leukotriene B4 and 5-HETE (5-lipoxygenase) |
| --- | --- | --- | --- | --- | --- | --- |
| – | – | – | – | O=C(O)CCCOc1ccccc1CNc1cccc(OCc2ccc3ccccc3n2)c1 [Example 14, 3-(2'-quinolylmethoxy)-N-(2"-carboxy-(3-propyloxy)benzyl)aniline] | not observed | significant and specific decrease |
| – | – | – | – | O=C(O)CCCOc1ccc(CNc2cccc(OCc3ccc4ccccc4n3)c2)cc1 [Example 16] | not observed | significant and specific decrease |
| – | – | – | – | O=C(O)COc1ccccc1CNc1ccc(OCc2ccc3ccccc3n2)cc1 [Example 22, 4-(2'-Quinolylmethoxy)-N-(2"-carboxymethoxybenzyl)-aniline] | not observed | significant and specific decrease |
| 900 nM | – | – | – | c1ccc(CNc2ccc(OCc3ccc4ccccc4n3)cc2)cc1 [example 38] | – | – |
| 40 nM | – | – | – | O=C(O)CN(Cc1ccccc1)c1cccc(OCc2ccc3ccccc3n2)c1 [ref. I] | – | – |
| – | – | – | – | O=C(O)c1ccccc1NCc1cccc(OCc2ccc3ccccc3n2)c1 [Example 2] | not observed | significant and specific decrease |
| 16 nM | 0.316 nM | 9.5 | 7.94 nM | O=C(O)COc1ccccc1CNc1cccc(OCc2ccc3ccccc3n2)c1 [Example 9, 3-(2'-quinolylmethoxy)-N-(2"-carboxymethoxybenzyl)aniline] | not observed | significant and specific decrease |
| – | – | – | – | O=C(O)Cc1ccc(NCc2cccc(OCc3ccc4ccccc4n3)c2)cc1 [Example 8] | not observed | significant and specific decrease |
| – | – | – | – | O=C(NO)c1ccc(CN(Cc2cccc(F)c2)c2cccc(OCc3ccc4ccccc4n3)c2)cc1 [Example 20, 3(2'-Quinolylmethoxy)-N-(3"-fluorobenzyl)-N-(4'"-hydroxaminocarbonylbenzyl)aniline] | not observed | significant and specific decrease |
| – | – | – | – | CC(Oc1ccc(CNc2cccc(OCc3ccc4ccccc4n3)c2)cc1)C(=O)O (stereo not shown) [Example 12, 3-(2'-quinolylmethoxy)-N-(4"-(1-carboxyethoxy)benzyl)aniline] | not observed | significant and specific decrease |
| – | – | – | – | CC(Oc1ccccc1CNc1ccc(OCc2ccc3ccccc3n2)cc1)C(=O)O (stereo not shown) [Example 13] | not observed | significant and specific decrease |
| > 10000 nM | – | – | – | c1ccc(CNc2ccccc2OCc2ccc3ccccc3n2)cc1 [example 67] | – | – |
| 30 nM | 126 nM | – | – | c1ccc(CNc2cccc(OCc3ccc4ccccc4n3)c2)cc1 [example 39, reference compound] | – | – |
| – | 5.01 nM | 8.3 | 50.1 nM | O=C(O)COc1cccc(CNc2cccc(OCc3ccc4ccccc4n3)c2)c1 [Example 1, 3-(2'-Quinolylmethoxy)-N-(3"-carboxymethoxybenzyl)aniline] | – | – |
| – | – | – | – | O=C(NO)c1ccccc1Nc1cccc(OCc2ccc3ccccc3n2)c1 [Example 21, 3-(2'-Quinolylmethoxy)-N-(2"-hydroxaminocarbonylphenyl)-aniline] | not observed | significant and specific decrease |
| – | 3.98 nM | 8.4 | 31.6 nM | O=C(O)COc1ccc(CNc2cccc(OCc3ccc4ccccc4n3)c2)cc1 [Example 10, 3-(2'-quinolylmethoxy)-N-(4"-carboxymethoxybenzyl)aniline] | – | – |
| – | – | – | – | O=C(O)CCOc1ccccc1CNc1cccc(OCc2ccc3ccccc3n2)c1 [Example 11] | not observed | significant and specific decrease |
